# Results: US20240076293A1, “Compositions and Methods for Inhibiting Fibrosis, Inflammation and Cancer” (Georgia Tech Research Corporation, priority 2020, published 2024)
# Columns and labels:
# Type in all cases: cell-based
# MDA-MB-231 = test: Anti-proliferation IC50, MDA-MB-231; conditions: Homo sapiens, Table 2, compounds of formula II, read-out: Anti-proliferation IC50 MDA-MB-231
# MRC-5 = test: Anti-proliferation IC50, MRC-5; conditions: Homo sapiens, MRC5; Table 2, compounds of formula II
# Hep-G2 = test: Anti-proliferation IC50, Hep-G2; conditions: Homo sapiens, HepG2; Table 2, compounds of formula II; read-out: Anti-proliferation IC50 Hep-G2
# VERO = test: Anti-proliferation IC50, VERO; conditions: Chlorocebus sabaeus, Table 2, compounds of formula II, read-out: Anti-proliferation IC50 VERO
# A549 = test: Anti-proliferation IC50, A549; conditions: Homo sapiens, Table 2, compounds of formula II, read-out: Anti-proliferation IC50 A549
# MCF-7 = test: Anti-proliferation IC50, MCF-7; conditions: Homo sapiens, MCF7; Table 2, compounds of formula II; read-out: Anti-proliferation IC50 MCF-7
IC50 (MDA-MB-231),IC50 (Hep-G2),IC50 (A549),IC50 (MCF-7),SMILES,IC50 (MRC-5),IC50 (VERO)
11.8 ± 0.1 µM,8.5 ± 1.1 µM,10.3 ± 0.9 µM,11.7 ± 0.4 µM,CC[C@@H]1OC(=O)[C@@H](C)[C@H](O[C@H]2C[C@@](C)(OC)[C@@H](O)[C@H](C)O2)[C@@H](C)[C@H](O[C@H]2O[C@@H](C)C[C@@H](N(C)Cc3ccc(-c4cn(CCNC(=O)CCCC[C@H]5CCSS5)nn4)cc3)[C@@H]2O)C(C)(O)C[C@H](C)CN(C)[C@@H](C)[C@H](O)[C@@]1(C)O (stereo partly drawn),6.1 µM,16.9 ± 0.4 µM
34.8 ± 2.8 µM,64.9 ± 2.4 µM,111 ± 4.6 µM,39.3 ± 7.1 µM,CCCCOC(=O)/C=C/C(=O)N(C)[C@@H]1C[C@H](C)O[C@H](O[C@H]2[C@H](C)[C@@H](O[C@H]3C[C@@](C)(OC)[C@@H](O)[C@H](C)O3)[C@H](C)C(=O)O[C@@H](CC)[C@](C)(O)[C@@H](O)[C@H](C)N(C)C[C@@H](C)CC2(C)O)[C@H]1O (stereo partly drawn),78.9 ± 2.6 µM,97.2 ± 15.5 µM
11.9 ± 1.7 µM,13.6 ± 0.1 µM,18.8 ± 4.1 µM,11.2 µM,CC[C@H]1OC(=O)[C@H](C)[C@@H](O[C@H]2C[C@@](C)(OC)[C@@H](O)[C@H](C)O2)[C@H](C)[C@@H](O[C@@H]2O[C@H](C)C[C@H](N(C)C(=O)CCCC[C@H]3CCSS3)[C@H]2O)[C@](C)(O)C[C@@H](C)CN(C)[C@H](C)[C@@H](O)[C@]1(C)O,20.2 ± 3.7 µM,24.4 ± 2.4 µM
